Tested on: CEM T-ALL cells
Experiment: Cell cycle kinetics by EdU incorporation (flow cytometry) after release from Palbociclib G1 arrest
Format: cell-based, human
Conditions: for S1 / S2 / S3: synchronous CEM, 12 h after G1 release
Procedure: CEM T-ALL cells were synchronized in G1 phase, and then treated as indicated. Cells were pulsed with EdU 1 h before collection at different time points. Cells were fixed 4% paraformaldehyde, permeabilized with perm/wash reagent (Invitrogen), stained with Azide-AF647 (using click-chemistry, Invitrogen; Click-iT EdU Flow cytometry kit, #C10634) and FxCycle-Violet (Invitrogen), and then analyzed flow cytometry (a detailed description is available in the Supplementary Information).
Cell cycle synchronization. Cells were treated with a CDK4/6 inhibitor, Pablociclib or PD-0332991 (Selleckchem, S1116) for 18 h to synchronize them in the G1 phase. Subsequently, cells were washed twice with PBS containing 2% FBS (Omega Scientific) and released into fresh media. […]
0.5 ml of propidium iodide (Calbiochem, #P3566, 1 µg/mL) solution containing Ribonuclease A and 0.3% Triton-X 100. The samples were protected from light before acquisition by flow cytometry.
Cell cycle kinetics and cell cycle progression by intracellular detection of DNA-incorporated 5-ethynyl-2-deoxyuridine (EdU). CEM T-ALL cells were plated at a density of 0.5 x 10^6 cells/mL. Cells were pulsed with 10 µM EdU (Invitrogen) for 1 h, washed twice with PBS, and released in fresh media containing 5 µM deoxyribonucleosides, with and without drugs. Cells were collected at different time points following release in fresh media, and then fixed with 4% paraformaldehyde and permeabilized using saponin perm/wash reagent (Invitrogen). Cells were then stained with azide-Alexa Fluor 647 by Click reaction according to manufacturer’s protocol (Invitrogen; Click-iT EdU Flow cytometry kit, #C10634). The total DNA content was assessed by staining the samples with FxCycle-Violet (Invitrogen, #F10347) at 1 µg/mL final concentration in PBS containing 2% FBS. To measure the cell cycle progression of a synchronous population of cells, cells were first arrested in the G1 phase following treatment with 1 µM Palbociclib for 18 h, then washed and released in fresh media supplemented with drugs. Before collecting and fixing the cells at different time points, the cells were pulse-labeled with 10 µM EdU for 1 h, and then labeled with azide-Alexa Fluor 647 (Invitrogen; Click-iT EdU Flow cytometry kit). Total DNA content was assessed by staining with FxCycle-Violet (Invitrogen) at 1 µg/mL final concentration in PBS containing 2% FBS. pH2A.X staining. Cells were harvested, fixed and permeabilized with cytofix/cytoperm (BD biosciences, #554722) for 15 min on ice protected from light. Cells were washed, then resuspended in 100 µL 1X Perm/wash buffer (BD Sciences) and incubated for 15 min on ice. The cells were washed, then resuspended in 50 µL with phospho-Histone H2A.X (Ser139) antibody conjugated to fluorochrome FITC (EMD Millipore, #05-636, 1:800 dilutions in perm/wash) for 20 min in the dark at RT. Subsequently, cells were washed and stained with 0.5 mL of DAPI (Invitrogen, #D1306) for DNA content (1 µg/mL in 2% FBS in PBS) before data […]
Measurement of ssDNA levels using the F7-26 monoclonal antibody. Cells were harvested and fixed with ice-cold methanol:PBS (6:1 v/v) for 24h. Staining with F7-26 monoclonal mouse antibody was performed according to manufacturer’s instructions (EMD Millipore, #MAB3299). Fixed cells were resuspended in 250 µL of formamide and heated in a water bath at 75 °C for 10 min. Cells were then allowed to equilibrate to room temperature and then washed with 2 mL of 1% non-fat dry milk in PBS for 15 min. Subsequently, cells were resuspended in 100 µL of anti-ssDNA Mab F7-26 (EMD Millipore, 1:10 in 5% FBS in PBS) and incubated for 45 min at room temperature. Cells were washed with PBS and stained with 100 µL of fluorescence-conjugated

SMILES	percentage of cell population in S2* (late S-phase) (12 h following release from G1 arrest, DI-82 1 µM) [%]	S1 (+ dNTP (10 µM)) [%]	S2 (+ dNTP (10 µM)) [%]	S3 (+ dNTP (10 µM)) [%]	S1 (– dNTP) [%]	S2 (– dNTP) [%]	S3 (– dNTP) [%]	fewer cells entered S2 compared to untreated cells (12 h after release from G1 arrest) [%]
COc1ccc(-c2nc([C@@H](C)Sc3nc(N)cc(N)n3)c(C)s2)cc1OCCNS(C)(=O)=O [dCKi]	6.1	42	42	14	66	22	8.4	
CNCc1ccc(-c2cc(-c3nc(-c4ccc(S(=O)(=O)C(C)C)cc4)cnc3N)on2)cc1 [VE-822]		43	52	1.5	58	37	1	16

Reference: publication PMC5556071, “ATR inhibition facilitates targeting of leukemia dependence on convergent nucleotide biosynthetic pathways” (Nature Communications, 2017)
